Reference: ChEMBL document CHEMBL6096706, “Discovery of WDR5-MLL1 and HDAC Dual-Target Inhibitors for the Treatment of Acute Myeloid Leukemia” (J Med Chem, 2025)

Assays:
[1] = target: T1, Protein deacetylase HDAC6 (Homo sapiens, UniProt Q9UBN7); assay: Inhibition of HDAC6 (unknown origin) by fluorescence based assay
T1 sequence (Q9UBN7 whole entry): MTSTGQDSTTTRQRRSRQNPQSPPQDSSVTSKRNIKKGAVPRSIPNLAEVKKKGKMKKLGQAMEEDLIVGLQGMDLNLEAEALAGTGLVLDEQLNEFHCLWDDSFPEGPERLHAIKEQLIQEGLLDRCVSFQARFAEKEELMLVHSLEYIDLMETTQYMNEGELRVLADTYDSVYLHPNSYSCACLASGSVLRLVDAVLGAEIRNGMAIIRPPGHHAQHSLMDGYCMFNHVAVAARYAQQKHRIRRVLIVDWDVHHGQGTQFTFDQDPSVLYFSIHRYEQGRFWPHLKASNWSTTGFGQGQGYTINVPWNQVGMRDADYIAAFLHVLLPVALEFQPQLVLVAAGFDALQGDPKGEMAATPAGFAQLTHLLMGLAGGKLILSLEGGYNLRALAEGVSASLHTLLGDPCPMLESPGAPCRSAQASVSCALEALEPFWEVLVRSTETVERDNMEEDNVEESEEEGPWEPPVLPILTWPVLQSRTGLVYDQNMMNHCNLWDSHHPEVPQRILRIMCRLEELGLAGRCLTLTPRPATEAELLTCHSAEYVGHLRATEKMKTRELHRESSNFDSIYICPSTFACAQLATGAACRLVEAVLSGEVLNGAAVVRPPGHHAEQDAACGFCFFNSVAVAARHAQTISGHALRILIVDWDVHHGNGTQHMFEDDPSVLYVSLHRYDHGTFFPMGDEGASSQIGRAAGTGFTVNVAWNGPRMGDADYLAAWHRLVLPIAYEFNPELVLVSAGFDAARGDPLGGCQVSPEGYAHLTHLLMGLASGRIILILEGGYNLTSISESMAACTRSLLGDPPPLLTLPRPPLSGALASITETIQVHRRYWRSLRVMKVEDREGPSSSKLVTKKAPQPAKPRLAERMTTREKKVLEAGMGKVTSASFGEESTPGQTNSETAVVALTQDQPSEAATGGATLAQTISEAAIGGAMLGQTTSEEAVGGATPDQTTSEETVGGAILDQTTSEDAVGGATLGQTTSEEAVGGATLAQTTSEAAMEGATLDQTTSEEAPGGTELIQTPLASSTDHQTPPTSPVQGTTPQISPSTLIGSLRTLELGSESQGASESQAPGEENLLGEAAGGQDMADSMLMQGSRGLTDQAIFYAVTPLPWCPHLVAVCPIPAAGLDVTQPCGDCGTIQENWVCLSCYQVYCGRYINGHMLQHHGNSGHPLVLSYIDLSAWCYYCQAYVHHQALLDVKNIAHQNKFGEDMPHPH

[2] = system: MV4-11; assay: cells; format: functional, cell-based; conditions: Homo sapiens, MV4-11, 72 h
Description: Antiproliferative activity against human MV4-11 cells assessed as inhibition of cell growth measured after 72 hrs by CellTiterGlo assay

[3] = system: MV4-11; assay: Induction of apoptosis in human MV4-11 cells assessed as early apoptotic cells at 50 nmol/L incubated for 72 hrs by Annexin V/PI staining based flow cytometry analysis (reference value: 4.17 %); format: functional
[4] = system: MV4-11; assay: Induction of apoptosis in human MV4-11 cells assessed as necrotic cells at 100 nmol/L incubated for 72 hrs by Annexin V/PI staining based flow cytometry analysis (reference value: 0.46%); format: functional
[5] = system: MV4-11; assay: Induction of apoptosis in human MV4-11 cells assessed as viable cells at 200 nM incubated for 72 hrs by Annexin V/PI staining based flow cytometry analysis (reference value: 96.68%); format: functional; conditions: read-out: Activity
[6] = system: MV4-11; assay: Antiproliferative activity against human MV4-11 cells assessed as growth inhibition at 1 uM measured after 72 hrs by CellTiterGlo assay; format: functional; conditions: read-out: GI
[7] = system: MV4-11; assay: Antiproliferative activity against human MV4-11 cells assessed as growth inhibition at 0.05 uM measured after 72 hrs in presence of 0.2 uM of vorinostat by CellTiterGlo assay; format: functional; conditions: read-out: GI
[8] = system: MV4-11; assay: Antiproliferative activity against human MV4-11 cells assessed as growth inhibition at 0.1 uM measured after 72 hrs in presence of 0.1 uM of vorinostat by CellTiterGlo assay; format: functional; conditions: read-out: GI
[9] = system: MV4-11; assay: Antiproliferative activity against human MV4-11 cells assessed as growth inhibition at 0.2 uM measured after 72 hrs in presence of 0.5 uM of vorinostat by CellTiterGlo assay; format: functional; conditions: read-out: GI
[10] = system: MV4-11; assay: Antiproliferative activity against human MV4-11 cells assessed as growth inhibition at 0.4 uM measured after 72 hrs in presence of 0.2 uM of vorinostat by CellTiterGlo assay; format: functional; conditions: read-out: GI
[11] = system: MV4-11; assay: Antiproliferative activity against human MV4-11 cells assessed as growth inhibition at 0.4 uM measured after 72 hrs in presence of 0.4 uM of vorinostat by CellTiterGlo assay; format: functional; conditions: read-out: GI
[12] = system: MV4-11; assay: Antiproliferative activity against human MV4-11 cells assessed as growth inhibition at 0.5 uM measured after 72 hrs in presence of 0.1 uM of vorinostat by CellTiterGlo assay; format: functional; conditions: read-out: GI
[13] = system: MV4-11; assay: Antiproliferative activity against human MV4-11 cells assessed as growth inhibition at 0.5 uM measured after 72 hrs in presence of 1 uM of vorinostat by CellTiterGlo assay; format: functional; conditions: read-out: GI
[14] = system: MV4-11; assay: Antiproliferative activity against human MV4-11 cells assessed as growth inhibition at 1 uM measured after 72 hrs in presence of 0.05 uM of vorinostat by CellTiterGlo assay; format: functional; conditions: read-out: GI
[15] = system: MV4-11; assay: Antiproliferative activity against human MV4-11 cells assessed as growth inhibition at 2 uM measured after 72 hrs in presence of 0.05 uM of vorinostat by CellTiterGlo assay; format: functional; conditions: read-out: GI
[16] = system: MV4-11; assay: Antiproliferative activity against human MV4-11 cells assessed as growth inhibition at 2 uM measured after 72 hrs in presence of 0.2 uM of vorinostat by CellTiterGlo assay; format: functional; conditions: read-out: GI
[17] = system: MV4-11; assay: Antiproliferative activity against human MV4-11 cells assessed as growth inhibition at 2 uM measured after 72 hrs in presence of 0.4 uM of vorinostat by CellTiterGlo assay; format: functional; conditions: read-out: GI
[18] = system: MV4-11; assay: Induction of apoptosis in human MV4-11 cells assessed as viable cells at 200 nM incubated for 72 hrs in presence of vorinostat by Annexin V/PI staining based flow cytometry analysis (reference value: 96.68%); format: functional; conditions: read-out: Activity
[19] = system: MV4-11; assay: Induction of apoptosis in human MV4-11 cells assessed as late apoptotic cells at 200 nM incubated for 72 hrs in presence of vorinostat by Annexin V/PI staining based flow cytometry analysis (reference value: 6.42 %); format: functional
[20] = system: MV4-11; assay: Induction of apoptosis in human MV4-11 cells assessed as early apoptotic cells at 600 nM incubated for 72 hrs in presence of vorinostat by Annexin V/PI staining based flow cytometry analysis (reference value: 0.76 %); format: functional
[21] = system: MV4-11; assay: Induction of apoptosis in human MV4-11 cells assessed as late apoptotic cells at 600 nM incubated for 72 hrs in presence of vorinostat by Annexin V/PI staining based flow cytometry analysis (reference value: 6.42 %); format: functional
[22] = system: MV4-11; assay: Induction of apoptosis in human MV4-11 cells assessed as necrotic cells at 600 nM incubated for 72 hrs in presence of vorinostat by Annexin V/PI staining based flow cytometry analysis (reference value: 2.61%); format: functional

Cc1c(F)c(N)cc(C(=O)Nc2cc(-c3ccc(C(=O)NCc4ccc(/C=C/C(=O)NO)cc4)cc3)ccc2N2CCN(C)CC2)c1Cl
IC50 [1]: 46 nM | IC50 [2]: 65 nM | Activity [3]: 11.03% | Activity [4]: 1.84%

Cc1c(F)c(N)cc(C(=O)Nc2cc(-c3ccc(C(=O)N4CCOCC4)cc3)ccc2N2CCN(C)CC2)c1Cl
viability at 0.2 µM [5]: 90.3% | inhibition of growth at 1 µM [6]: 40.7% | inhibition of growth at 0.05 µM [7]: 46.6% | inhibition of growth at 0.1 µM [8]: 42.8% | inhibition of growth at 0.2 µM [9]: 74.7% | inhibition of growth at 0.4 µM [10]: 59.3% | inhibition of growth at 0.4 µM [11]: 62.6% | inhibition of growth at 0.5 µM [12]: 51.7% | inhibition of growth at 0.5 µM [13]: 91.1% | inhibition of growth at 1 µM [14]: 52.1% | inhibition of growth at 2 µM [15]: 55.9% | inhibition of growth at 2 µM [16]: 72.3% | inhibition of growth at 2 µM [17]: 89.4% | viability at 0.2 µM [18]: 57% | Activity [19]: 7.65% | Activity [20]: 69.5% | Activity [21]: 19.27% | Activity [22]: 1.55%
